Laboratory results from patent US9115137B2, “2,3,4,5-tetrahydro-1H-pyrido[4,3-B]indole compounds and methods of use thereof” (priority 2008, dated 2015).
Read-outs that look alike come from different tables or passages of the source.

Columns and labels:
[1] = biological target: T1, human recombinant histamine H1 receptor (Homo sapiens, UniProt P35367); test: Histamine H1 radioligand binding ([3H]Pyrilamine); details: read-out: Histamine Binding (1 μM) H1, percent inhibition of specific binding
T1 construct: expressed in transfected cells; host or cells: CHO cells
Description: To evaluate in radioligand binding assays the activity of compounds of the invention, human recombinant histamine H1 receptor expressed in Chinese hamster ovary (CHO) cells (De Backer, M. D. et al., Biochem. Biophys. Res. Comm. 197(3):1601, 1993) in a modified Tris-HCl buffer (50 mM Tris-HCl, pH 7.4, 2 mM MgCl2, 100 mM NaCl, 250 mM Sucrose) was used. Compounds of the invention were incubated with 1.2 nM [^3H]Pyrilamine for 180 minutes at 25° C. Non-specific binding was estimated in the presence of 1 μM pyrilamine. Receptor proteins were filtered and washed, the filters were then counted to determine [^3H]Pyrilamine specifically bound. Compounds were screened at 1 μM, using 1% DMSO as vehicle. Biochemical assay results are presented as the percent inhibition of specific binding in Table 5.

[2] = biological target: T2, human recombinant serotonin (5-Hydroxytryptamine) 5-HT7 receptor (Homo sapiens, UniProt P34969); test: Serotonin 5-HT7 radioligand binding ([3H]LSD); details: compound at 1 μM; CHO cells; read-out: Serotonin (1 μM) 5-HT7, percent inhibition of specific binding
T2 construct: expressed in transfected cells; host or cells: CHO cells
Description: To evaluate in radioligand binding assays the activity of compounds of the invention, human recombinant serotonin (5-Hydroxytryptamine) 5-HT7 receptor expressed in Chinese hamster ovary (CHO) cells (Roth, B. L. et al., J. Pharmacol. Exp. Ther. 268:1403, 1994; Shen, Y. et al., J. Biol. Chem. 268:18200, 1993) in a modified Tris-HCl buffer (50 mM Tris-HCl, pH 7.4, 10 mM MgCl2, 0.5 mM EDTA) was used. Compounds of invention were incubated with 5.5 nM [^3H] Lysergic acid diethylamide (LSD) for 2 hours at 25° C. Non-specific binding was estimated in the presence of 10 μM Serotonin (5-HT). Receptor proteins were filtered and washed, the filters were then counted to determine [^3H]LSD specifically bound. Compounds were screened at 1 μM or lower, using 1% DMSO as vehicle. Biochemical assay results are presented as the percent inhibition of specific binding in Table 7.

[3] = biological target: T3, human recombinant serotonin (5-Hydroxytryptamine) 5-HT2B receptor (Homo sapiens, UniProt P41595); test: Serotonin 5-HT2B radioligand binding ([3H]LSD); details: compound at 1 μM; CHO-K1 cells; read-out: Serotonin (1 μM) 5-HT2B, percent inhibition of specific binding
T3 construct: expressed in transfected cells; host or cells: CHO-K1 cells
Description: To evaluate in radioligand binding assays the activity of compounds of the invention, human recombinant serotonin (5-Hydroxytryptamine) 5-HT2B receptor expressed in Chinese hamster ovary (CHO-K1) cells (Bonhaus, D. W. et al., Br. J. Pharmacol. 115:622, 1995) in a modified Tris-HCl buffer (50 mM Tris-HCl, pH 7.4, 4 mM CaCl2, 0.1% Ascorbic Acid) was used. Compounds of invention were incubated with 1.2 nM [^3H]Lysergic acid diethylamide (LSD) for 60 minutes at 37° C. Non-specific binding was estimated in the presence of 10 μM Serotonin (5-HT). Receptor proteins were filtered and washed, the filters were then counted to determine [^3H]LSD specifically bound. Compounds were screened at 1 μM or lower, using 1% DMSO as vehicle. Compounds of the invention were tested in this biochemical assay and percent inhibition of specific binding was determined. Biochemical assay results are presented as the percent inhibition of specific binding in Table 7.

[4] = tested on: rat central imidazoline I2 receptor; test: Central imidazoline I2 radioligand binding ([3H]Idazoxan); details: compound at 1 μM; Wistar Rat cerebral cortex
Description: To evaluate in radioligand binding assays the activity of compounds of the invention, rat central imidazoline I2 receptor obtained from Wistar Rat cerebral cortex (Brown, C. M. et al., Br. J. Pharmacol. 99:803, 1990) in a modified Tris-HCl buffer (50 mM Tris-HCl buffer, pH 7.4, 0.5 mM EDTA) was used. Compounds of the invention were incubated with 2 nM [^3H]Idazoxan for 30 minutes at 25° C. Non-specific binding was estimated in the presence of 1 μM Idazoxan. Receptor proteins were filtered and washed, the filters were then counted to determine [^3H]Idazoxan specifically bound. Compounds were screened at 1 μM or lower, using 1% DMSO as vehicle. Compounds of the invention were tested in this biochemical assay and percent inhibition of specific binding was determined. Biochemical assay results are presented as the percent inhibition of specific binding in Table 5.

[5] = biological target: T4, human recombinant serotonin (5-Hydroxytryptamine) 5-HT2A receptor (Homo sapiens, UniProt P28223); test: Serotonin 5-HT2A radioligand binding ([3H]Ketanserin); details: read-out: Serotonin (1 μM) 5-HT2A, percent inhibition of specific binding
T4 construct: expressed in transfected cells; host or cells: CHO-K1 cells
Description: To evaluate in radioligand binding assays the activity of compounds of the invention, human recombinant serotonin (5-Hydroxytryptamine) 5-HT2A receptor expressed in Chinese hamster ovary (CHO-K1) cells (Bonhaus, D. W. et al. Br. J. Pharmacol. 115:622, 1995; Saucier, C. and Albert, P. R., J. Neurochem. 68:1998, 1997) in a 50 mM Tris-HCl buffer, pH 7.4, was used. Compounds of the invention were incubated with 0.5 nM [^3H]Ketanserin for 60 minutes at 25° C. Non-specific binding was estimated in the presence of 1 μM Mianserin. Receptor proteins were filtered and washed, the filters were then counted to determine [^3H] Ketanserin specifically bound. Compounds were screened at 1 μM or lower, using 1% DMSO as vehicle. Biochemical assay results are presented as the percent inhibition of specific binding in Table 7.

[6] = biological target: T5, human recombinant serotonin (5-Hydroxytryptamine) 5-HT5A receptor (Homo sapiens, UniProt P47898); test: Serotonin 5-HT5A radioligand binding ([3H]LSD); details: compound at 1 μM; CHO-K1 cells; read-out: Serotonin (1 μM) 5-HT5A, percent inhibition of specific binding
T5 construct: expressed in transfected cells; host or cells: CHO-K1 cells
Description: To evaluate in radioligand binding assays the activity of compounds of the invention, human recombinant serotonin (5-Hydroxytryptamine) 5-HT5A receptor expressed in Chinese hamster ovary (CHO-K1) cells (Rees, S. et al., FEBS Lett. 355:242, 1994) in a modified Tris-HCl buffer (50 mM Tris-HCl, pH 7.4, 10 mM MgCl2, 0.5 mM EDTA) was used. Compounds of the invention were incubated with 1.7 nM [^3H]Lysergic acid diethylamide (LSD) for 60 minutes at 37° C. Non-specific binding was estimated in the presence of 100 μM Serotonin (5-HT). Receptor proteins were filtered and washed, the filters were then counted to determine [^3H]LSD specifically bound. Compounds were screened at 1 μM or lower, using 1% DMSO as vehicle. Compounds of the invention were tested in this biochemical assay and percent inhibition of specific binding was determined. Biochemical assay results are presented as the percent inhibition of specific binding in Table 7.

T2 sequence (P34969 whole entry): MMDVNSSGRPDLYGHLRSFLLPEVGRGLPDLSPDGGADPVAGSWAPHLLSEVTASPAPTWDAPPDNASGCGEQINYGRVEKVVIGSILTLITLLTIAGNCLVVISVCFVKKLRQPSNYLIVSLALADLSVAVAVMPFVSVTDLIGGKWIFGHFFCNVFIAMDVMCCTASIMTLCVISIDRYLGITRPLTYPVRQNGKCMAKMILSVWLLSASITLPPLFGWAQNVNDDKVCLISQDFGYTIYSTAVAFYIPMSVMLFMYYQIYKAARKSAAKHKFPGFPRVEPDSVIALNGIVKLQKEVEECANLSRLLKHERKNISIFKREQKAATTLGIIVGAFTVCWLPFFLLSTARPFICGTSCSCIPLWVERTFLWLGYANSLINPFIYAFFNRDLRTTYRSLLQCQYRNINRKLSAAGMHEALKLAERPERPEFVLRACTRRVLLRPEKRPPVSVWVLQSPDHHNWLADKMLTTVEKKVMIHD
T4 sequence (P28223 whole entry): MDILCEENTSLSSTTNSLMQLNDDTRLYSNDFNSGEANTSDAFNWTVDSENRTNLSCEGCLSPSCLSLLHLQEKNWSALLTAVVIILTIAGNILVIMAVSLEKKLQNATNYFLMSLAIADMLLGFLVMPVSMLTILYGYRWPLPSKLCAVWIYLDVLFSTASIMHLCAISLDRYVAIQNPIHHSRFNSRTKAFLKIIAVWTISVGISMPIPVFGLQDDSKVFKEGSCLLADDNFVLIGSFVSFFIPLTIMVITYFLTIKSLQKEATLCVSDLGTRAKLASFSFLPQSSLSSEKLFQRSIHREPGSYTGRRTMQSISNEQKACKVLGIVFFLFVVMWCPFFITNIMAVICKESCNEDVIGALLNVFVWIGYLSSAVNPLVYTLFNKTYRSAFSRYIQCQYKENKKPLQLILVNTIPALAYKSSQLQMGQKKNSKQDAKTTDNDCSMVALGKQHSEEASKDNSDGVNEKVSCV
T1 sequence (P35367 whole entry): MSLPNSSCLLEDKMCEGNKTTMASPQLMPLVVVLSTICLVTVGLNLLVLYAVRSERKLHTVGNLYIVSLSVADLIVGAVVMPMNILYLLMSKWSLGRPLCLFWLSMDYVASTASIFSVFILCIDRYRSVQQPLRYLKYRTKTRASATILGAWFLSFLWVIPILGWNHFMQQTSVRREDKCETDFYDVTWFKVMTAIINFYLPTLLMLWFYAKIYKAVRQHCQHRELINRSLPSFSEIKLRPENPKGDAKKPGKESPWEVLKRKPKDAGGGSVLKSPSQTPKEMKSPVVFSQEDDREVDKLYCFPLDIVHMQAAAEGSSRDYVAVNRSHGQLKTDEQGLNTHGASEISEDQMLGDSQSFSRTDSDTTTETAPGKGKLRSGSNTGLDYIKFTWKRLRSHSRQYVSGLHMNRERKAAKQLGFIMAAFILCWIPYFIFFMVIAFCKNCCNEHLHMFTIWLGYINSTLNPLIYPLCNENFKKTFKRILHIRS
T5 sequence (P47898 whole entry): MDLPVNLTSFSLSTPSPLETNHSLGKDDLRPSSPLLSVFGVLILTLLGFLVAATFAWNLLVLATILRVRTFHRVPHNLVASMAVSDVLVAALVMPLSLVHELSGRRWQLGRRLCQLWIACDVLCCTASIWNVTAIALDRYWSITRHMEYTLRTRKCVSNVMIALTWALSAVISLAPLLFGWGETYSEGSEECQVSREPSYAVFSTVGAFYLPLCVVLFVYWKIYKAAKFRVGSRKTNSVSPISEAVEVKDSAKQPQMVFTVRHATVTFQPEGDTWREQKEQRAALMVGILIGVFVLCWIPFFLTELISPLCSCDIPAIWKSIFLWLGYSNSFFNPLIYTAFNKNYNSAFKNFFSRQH
T3 sequence (P41595 whole entry): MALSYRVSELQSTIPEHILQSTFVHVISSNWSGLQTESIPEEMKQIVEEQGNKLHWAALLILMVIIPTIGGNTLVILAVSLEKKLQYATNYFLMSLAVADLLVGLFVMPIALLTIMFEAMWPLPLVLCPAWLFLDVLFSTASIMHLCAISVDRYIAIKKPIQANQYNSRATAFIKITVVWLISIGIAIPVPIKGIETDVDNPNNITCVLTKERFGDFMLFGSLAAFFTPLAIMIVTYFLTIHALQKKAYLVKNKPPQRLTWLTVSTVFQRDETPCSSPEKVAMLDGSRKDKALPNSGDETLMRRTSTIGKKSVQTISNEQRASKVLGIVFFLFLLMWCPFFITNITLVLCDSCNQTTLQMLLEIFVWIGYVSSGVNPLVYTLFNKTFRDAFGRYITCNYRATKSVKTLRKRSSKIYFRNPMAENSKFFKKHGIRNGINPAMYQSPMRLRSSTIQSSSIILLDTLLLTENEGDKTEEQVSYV

Row | SMILES | inhibition at 1 µM ([1]; compound at 1 μM, CHO cells) [%] | inhibition at 1 µM [2] [%] | inhibition at 1 µM [3] [%] | Imidazoline I2 Central (1 μM), percent inhibition of specific binding [4] [%] | inhibition at 1 µM ([5]; compound at 1 μM, CHO-K1 cells) [%] | inhibition at 1 µM [6] [%] | inhibition at 1 µM [1] [%] | inhibition at 1 µM [5] [%]
1 | C#CCn1c2c(c3cc(C)ccc31)CN(C)CC2 [CD73, 2,8-dimethyl-5-(prop-2-ynyl)-2,3,4,5-tetrahydro-1H-pyrido[4,3-b]indole] | 96 | 91 | 94 | 73 | 87 | 63 | – | –
2 | CCOC(=O)CCn1c2c(c3cc(C)ccc31)CN(C)CC2 [CD1, ethyl 3-(1,2,3,4-tetrahydro-2,8-dimethylpyrido[4,3-b]indol-5-yl)propanoate] | 101 | 85 | 54 | 55 | 89 | 39 | – | –
3 | Cc1ccc2c(c1)c1c(n2CCNC(=O)C2CCCNC2)CCN(C)C1 (stereo not drawn) [Compound 9, N-(2-(1,2,3,4-tetrahydro-2,8-dimethylpyrido[4,3-b]indol-5-yl)ethyl)piperidine-3-carboxamide] | – | -8 | -5 | 9 | 15 | -6 | – | –
4 | CCNC(=O)CCn1c2c(c3cc(C)ccc31)CN(C)CC2 [Compound 2, N-ethyl-3-(1,2,3,4-tetrahydro-2,8-dimethylpyrido[4,3-b]indol-5-yl)propanamide] | 52 | 47 | 20 | 8 | 22 | 14 | – | –
5 | Cc1ccc2c(c1)c1c(n2CCC(=O)NC2CCCCC2)CCN(C)C1 [Compound 3, N-cyclohexyl-3-(1,2,3,4-tetrahydro-2,8-dimethylpyrido[4,3-b]indol-5-yl)propanamide] | 2 | 36 | 21 | 27 | 63 | 35 | – | –
6 | CCNC(=O)CCCn1c2c(c3cc(C)ccc31)CN(C)CC2 [Compound 6, N-ethyl-4-(1,2,3,4-tetrahydro-2,8-dimethylpyrido[4,3-b]indol-5-yl)butanamide] | 46 | 43 | 21 | 52 | 30 | 25 | – | –
7 | Cc1ccc2c(c1)c1c(n2CCC(=O)NC2CCCC2)CCN(C)C1 [Compound 4, N-cyclopentyl-3-(1,2,3,4-tetrahydro-2,8-dimethylpyrido[4,3-b]indol-5-yl)propanamide] | 60 | 59 | 40 | 54 | 53 | 47 | – | –
8 | Cc1ccc2c(c1)c1c(n2C2CCCCC2O)CCN(C)C1 (stereo not drawn) [Compound 73, 2-(1,2,3,4-tetrahydro-2,8-dimethylpyrido[4,3-b]indol-5-yl)cyclohexanol] | 2 | 5 | – | – | 50 | – | – | –
9 | CCOC(=O)CCCn1c2c(c3cc(C)ccc31)CN(C)CC2 [Compound 5, ethyl 4-(1,2,3,4-tetrahydro-2,8-dimethylpyrido[4,3-b]indol-5-yl)butanoate] | 96 | 95 | 77 | 53 | 91 | 62 | – | –
10 | Cc1ccc2c(c1)c1c(n2CC(=O)NCC2CCCCC2)CCN(C)C1 [Compound 26, N-(cyclohexylmethyl)-2-(1,2,3,4-tetrahydro-2,8-dimethylpyrido[4,3-b]indol-5-yl)acetamide] | 66 | – | – | – | 89 | – | – | –
11 | Cc1ccc2c(c1)c1c(n2CCO)CCN(C)C1 [CD90, 2-(2,8-dimethyl-3,4-dihydro-1H-pyrido[4,3-b]indol-5(2H)-yl)ethanol] | 60 | – | – | – | 58 | – | – | –
12 | Cc1ccc2c(c1)c1c(n2CCNC(=O)C2CCCC2)CCN(C)C1 [Compound 68, N-(2-(1,2,3,4-tetrahydro-2,8-dimethylpyrido[4,3-b]indol-5-yl)ethyl)cyclopentanecarboxamide] | 58 | – | – | – | 77 | – | – | –
13 | Cc1ccc2c(c1)c1c(n2CCC(=O)NC(C)(C)C)CCN(C)C1 [Compound 28] | 21 | – | – | – | 17 | – | – | –
14 | CN1CCc2c(c3cc(Cl)ccc3n2CCBr)C1 [CD88, 5-(2-bromoethyl)-8-chloro-2-methyl-2,3,4,5-tetrahydro-1H-pyrido[4,3-b]indole] | – | – | – | – | – | – | 98 | 98
15 | Cc1ccc2c(c1)c1c(n2CCC#N)CCN(C)C1 [CD92, 3-(2,8-dimethyl-3,4-dihydro-1H-pyrido[4,3-b]indol-5(2H)-yl)propanenitrile] | 99 | – | – | – | 67 | – | – | –
16 | CN1CCc2c(c3cc(Cl)ccc3n2CCC(=O)OCc2ccccc2)C1 [Compound 19, benzyl 3-(8-chloro-1,2,3,4-tetrahydro-2-methylpyrido[4,3-b]indol-5-yl)propanoate] | 101 | – | – | – | 95 | – | – | –
17 | Cc1ccc2c(c1)c1c(n2CCC(N)=O)CCN(C)C1 [Compound 46, 3-(1,2,3,4-tetrahydro-2,8-dimethylpyrido[4,3-b]indol-5-yl)propanamide] | 52 | – | – | – | 33 | – | – | –
